# Source: patent US7662977B2, “PI-3 kinase inhibitor prodrugs” (Semafore Pharmaceuticals, Inc., priority 2003, dated 2010)
# Peptide text beside a SMILES is read from it. * marks the point of attachment. X1 = O=C(CCC(=O)*)OC[N+]1(c2cc(=O)c3cccc(-c4ccccc4)c3o2)CCOCC1
# Key:
# [1] = tested on: nude mice; assay: Acute toxicity after intravenous injection in nude mice; type: in vivo
# Description: (§1) In order to prepare the acetoxymethyl quarternary salt of Compound 1101, 1.0 g Compound 1101 was dissolved in 10 ml dry acetonitrile in a glass vial, and 1.0 g bromomethyl acetate (2.0 equivalents) was added and allowed to stir at room temperature overnight. LCMS indicated presence of starting material, so the reaction was heated at 65° C. in an oil bath for 8 hours. The mother liquors were decanted from the solid and the solids washed with a small amount of cold acetonitrile. The solid was dried in a vacuum dessicator overnight. The product was identified as 264 mg of a white solid with a retention time of 2.204 minutes, M+=380 which was 97% pure. […] Additionally, 250 uL of this 32.5 mM solution of compound A040-70 was administered to a nude mouse by oral gavage.
# Intravenously administered Compound 1 was determined to have a 100% mortality within 5 minutes of administration in three nude mice at a dose level of 16 mg/kg.
# [2] = tested on: J774 macrophages; assay: Phagocytosis of sensitized sRBCs in J774 macrophages (class I PI-3 kinase-dependent pathway); type: cell-based; conditions: for phagocytic index (PGI): 5 μM
# Description: The columns indicate phagocytic index or percentage of cells positive for phagocytic response. The phagocytic index is the number of sRBC's (sheep red blood cells) found per 100 J774 cells and the % of phagocytic cells is the % of J774 cells that have phagocytized at least 1 sRBC. The error bars represent standard deviation of mean.
# The bioactivity of LY294002 (Compound 1) was determined by assaying phagocytosis in J774 macrophages, which is a class I PI-3 kinase-dependent pathway. Briefly, […] DMSO control for 1 h in DMEM with 10% FCS and then sensitized sRBCs (sheep red blood cells) was added at a target to effector ratio equal to 100:[…] Cells were exposed to hypotonic shock to remove red blood cells and phagocytosis was determined by measurement of hemoglobin concentration in the cell lysates. […]
# [3] = tested on: EDC-CBF1 endothelial cells; assay: Tube formation of EDC-CBF1 endothelial cells on Matrigel; type: cell-based; conditions: overnight
# Description: In this example it was determined to what degree PI 3 kinase inhibitors (including targeted PI3 kinase inhibitor prodrugs) could inhibit tube formation. Matrigel was plated into 12-well plate wells and solidified in 37° C. for 2 hours. 1×10^5 EDC-CBF1 endothelial cells were then put on the top of the Matrigel layer in the presence of PBS, RADfV (cyclic negative control peptide), RGDfV (cyclic positive control peptide), RADS (linear negative control peptide), compound 1, or Compound 1126 at 20° M concentration overnight. Pictures were then taken using a microscope.
# [4] = tested on: p53 transcriptional activity; assay: p53 luciferase (transcriptional activity) in HBECs; type: cell-based; conditions: for induction of p53 luciferase activity versus control: HBECs, Compound 1: 6 hour exposure
# Text: This experiment tested the effect of PI 3 kinase inhibitors (Compound 1 and the targeted prodrug version of Compound 1; Compound 1126) on the induction of p53 luciferase activity. The transfection procedure was similar to that described in the literature to monitor p53 transcription.
# [5] = tested on: J774 macrophages; assay: Phagocytosis of sensitized sRBCs in J774 macrophages (class I PI-3 kinase-dependent pathway); type: cell-based
# [6] = Reversibility of prodrugs to compound 1 in aqueous phosphate buffer (LC-MS over time); conditions: for half-life: phosphate buffer
# Description: Prodrug Compounds were dissolved in water or in DMSO (if not freely soluble in water) and then diluted at least 10-fold into 50 mM phosphate buffer at pH=7.4 or pH=4.8 and allowed to stand at room temperature. The final concentration of the compounds in aqueous environment ranged from 50 to 500 uMolar.
# [7] = tested on: human non-small cell lung cancer cells: H1299; assay: H1299 non-small cell lung cancer xenograft in nude mice; type: in vivo
# Description: Male nude mice of 4-6 weeks in age weighing around 30 grams were inoculated subcutaneously in the right flank with 5 million tumor cells (human non-small cell lung cancer cells: H1299) on day 0. After 14 days of allowing the tumors to grow the animals were divided into 3 groups of 5 animals each. One group received vehicle control alone. One group received twice-per-day tail vein injections (i.v) of 50 uL volume of 24.4 millimolar solution of Compound 1126 in phosphate buffered saline corresponding to 25 mg/kg/day dosing level of the active component of the prodrug (i.e. compound 1). The last group received twice-per-day tail vein injections (i.v) of 50 uL volume of 4.9 millimolar solution of Compound 1126 in phosphate buffered saline corresponding to 5 mg/kg/day dosing level of the active component of the prodrug (compound 1). The tumors were measured every three days using calipers to determine the tumor volume and the animals weights were recorded when the animals were sacrificed on day 27. The results are shown in Table 7 and indicate strong tumor volume reduction versus control for both dose levels at the first datapoint only 3 days after treatment (Day 17) and continuing through to the end of the study: […]
# [8] = tested on: human brain cancer cell line (U87MG); assay: U87MG brain cancer xenograft model; type: in vivo; conditions: 25 mg/kg/day; for % Tumor Volume Reduction compared to vehicle only control: treatment from day 7, U87MG xenograft
# Description: Male nude mice of 4-6 weeks in age weighing around 30 grams were inoculated subcutaneously in the right flank with 5 million tumor cells (human non-small cell lung cancer cells: H1299) on day 0. After 14 days of allowing the tumors to grow the animals were divided into 3 groups of 5 animals each. One group received vehicle control alone. One group received twice-per-day tail vein injections (i.v) of 50 uL volume of 24.4 millimolar solution of Compound 1126 in phosphate buffered saline corresponding to 25 mg/kg/day dosing level of the active component of the prodrug (i.e. compound 1). The last group received twice-per-day tail vein injections (i.v) of 50 uL volume of 4.9 millimolar solution of Compound 1126 in phosphate buffered saline corresponding to 5 mg/kg/day dosing level of the active component of the prodrug (compound 1). The tumors were measured every three days using calipers to determine the tumor volume and the animals weights were recorded when the animals were sacrificed on day 27. The results are shown in Table 7 and indicate strong tumor volume reduction versus control for both dose levels at the first datapoint only 3 days after treatment (Day 17) and continuing through to the end of the study:
# An animal study was run as described in Example above except using a human brain cancer cell line (U87MG) and with treatment starting on day 7 such that the first tumor volume measurement occurred on day 10.
# [9] = Water solubility / solution in phosphate buffered saline; type: physicochemical
# Description: as §1
# [10] = portion not accumulated in the skeleton; cited from earlier work
# [11] = 20 uM, exposure-limited: 20 minute exposure then removal of test solution, solvent blank 163
molecule,measurement,setting,value
2-(4-morpholinyl)-8-phenyl-4H-1-benzopyran-4-one [Compound 1],observed effects after injection,"[1]; mice, injection of 1.04 uMoles",immediate death in three out of three mice
"O=c1cc(N2CCOCC2)oc2c(-c3ccccc3)cccc12 [Compound 1, 2-(4-morpholinyl)-8-phenyl-4H-1-benzopyran-4-one]",blocking of phagocytosis,"[2]; LY294002 at 10, 1 and 0.1 μM for 1 h, J774 cells",significantly blocked phagocytosis at all concentrations in a dose dependent manner
same,mortality,"[1]; nude, mouse, in vivo, iv, 16 mg/kg, 5 min",100%
same,tube formation compared with PBS control,[3],significantly less
same,induction of p53 luciferase activity versus control,[4],more than two fold higher
same,phagocytic index (PGI),[5]; [11],190
CC(C)(C)OC(=O)CCC(=O)OC[N+]1(c2cc(=O)c3cccc(-c4ccccc4)c3o2)CCOCC1 [Compound 1110],half-life,[6]; pH 4.8,> 120 h
same,half-life,[6]; pH 7.4,~10 h
N=C(N)NCCCC(NC(=O)CCC(=O)OC[N+]1(c2cc(=O)c3cccc(-c4ccccc4)c3o2)CCOCC1)C(=O)NCC(=O)NC(CC(=O)O)C(=O)NC(CO)C(=O)O (centres unmarked) [Compound 1126] (X1-RGDS-OH; configuration not given here),phagocytic index (PGI),[2]; aqueous pH=7 incubation time 2 hours,88
same,phagocytic index (PGI),[2]; aqueous pH=7 incubation time 5 hours,78
same,phagocytic index (PGI),[2]; aqueous pH=7 incubation time 10 hours,37
same,phagocytic index (PGI),[2]; time zero with no preincubation,140
same,mortality,"[1]; intravenous, 22 mg/kg, three nude mice, after 1 hour of observation",0%
same,% Tumor Volume Reduction compared to vehicle only control,"[7]; 5 mg/kg/day i.v. twice per day from day 14, H1299, Day 17",29%
same,% Tumor Volume Reduction compared to vehicle only control,"[7]; 5 mg/kg/day i.v. twice per day from day 14, H1299, Day 20",50%
same,% Tumor Volume Reduction compared to vehicle only control,"[7]; 5 mg/kg/day i.v. twice per day from day 14, H1299, Day 24",44%
same,% Tumor Volume Reduction compared to vehicle only control,"[7]; 5 mg/kg/day i.v. twice per day from day 14, H1299, Day 27",35%
same,% Tumor Volume Reduction compared to vehicle only control,"[7]; 25 mg/kg/day i.v. twice per day from day 14, H1299, Day 17",35%
same,% Tumor Volume Reduction compared to vehicle only control,"[7]; 25 mg/kg/day i.v. twice per day from day 14, H1299, Day 20",66%
same,% Tumor Volume Reduction compared to vehicle only control,"[7]; 25 mg/kg/day i.v. twice per day from day 14, H1299, Day 24",68%
same,% Tumor Volume Reduction compared to vehicle only control,"[7]; 25 mg/kg/day i.v. twice per day from day 14, H1299, Day 27",68%
same,"animal body weights, control group versus the two treatment groups","[7]; day 27, 25 and 5 mg/kg/day i.v., nude mice",lack of statistically significant difference
same,tolerability of twice per day doses,"[7]; two week administration period, 25 and 5 mg/kg/day i.v., nude mice",well tolerated
same,toxicity in U87MG xenograft study,[8],desirable lack of toxicity
same,% Tumor Volume Reduction compared to vehicle only control,[8]; Day 10,20.2%
same,% Tumor Volume Reduction compared to vehicle only control,[8]; Day 14,52.6%
same,% Tumor Volume Reduction compared to vehicle only control,[8]; Day 17,38.5%
same,% Tumor Volume Reduction compared to vehicle only control,[8]; Day 21,35.2%
same,tube formation compared with PBS control,[3],significantly less
same,induction of p53 luciferase activity versus control,[4],~3 fold
same,phagocytic index (PGI),"[5]; 1 uM, 20 minute incubation, removal, then 2 hours for phagocytosis, 0 uM gave 213",206
same,phagocytic index (PGI),"[5]; 3 uM, 20 minute incubation, removal, then 2 hours for phagocytosis, 0 uM gave 213",143
same,phagocytic index (PGI),"[5]; 10 uM, 20 minute incubation, removal, then 2 hours for phagocytosis, 0 uM gave 213",33
same,phagocytic index (PGI),[5]; [11],50
CN1CC(=O)N(c2ccc(C(=O)OC[N+]3(c4cc(=O)c5cccc(-c6ccccc6)c5o4)CCOCC3)cc2)C1=S [Compound A017-59],conversion back to compound 1,"[6]; phosphate buffer at pH=7.4, over a 17 hour period",significant amounts of this compound converted back to compound 1
COCCOCCOCCOCCC(=O)OC[N+]1(c2cc(=O)c3cccc(-c4ccccc4)c3o2)CCOCC1 [Compound A027-85],half-life,[6]; pH 7.4,~3 h
CC(=O)OC[N+]1(c2cc(=O)c3cccc(-c4ccccc4)c3o2)CCOCC1 [Compound A040-70],water solubility,[9],very high water solubility
same,concentration of solution prepared in phosphate buffered saline,"[9]; 27 mg in 1.865 mL PBS, resulting pH around 4",32.5 millimolar
same,half-life,[6]; pH 7.4,~10 h
O=C(CCC(=O)OC[N+]1(c2cc(=O)c3cccc(-c4ccccc4)c3o2)CCOCC1)NCc1ccc(C(=O)NCCN(CCN(CP(=O)(O)O)CP(=O)(O)O)CCN(CP(=O)(O)O)CP(=O)(O)O)cc1 [Compound A046-89P],conversion back to compound 1,"[6]; after 24 hours standing at pH=7.0, phosphate buffer",converted completely back to compound 1
O=P([O-])(O)CN(CCN(CP(=O)([O-])O)CP(=O)(O)O)CP(=O)([O-])O.[153Sm+3] [^153Sm-EDTMP],time after administration at which excretion is almost complete,[10],≤ 6 h
Cc1ccc(C(=O)Cn2c3c(sc2=N)CCCC3)cc1 [pifithrin alpha],effect on induction of p53 function by Compound 1 and Compound 1126,[4]; 20 uM concentration,abrogated
"arg-gly-asp-ser [RGDS, reference compound]",tube formation compared with PBS control,[3],not much difference
same,phagocytic index (PGI),[5]; [11],170
